Test results from BindingDB's records for doi:10.1021/jm9608523 (Merck Sharp & Dohme Research Laboratories, 1997).

What follows are compounds tested against Gastrin/cholecystokinin type B receptor (Cavia porcellus) (assay: Inhibition of ligand binding to Cholecystokinin type B receptor from guinea pig cortical membrane.).

`CCCN1C(=O)[C@H](NC(=O)Nc2cccc(C)c2)N=C([C@H]2CCCCN2)c2ccccc21` [1-((R)-2-Oxo-5-(R)-piperidin-2-yl-1-propyl-2,3-dihydro-1H-benzo[e][1,4]diazepin-3-yl)-3-m-tolyl-urea] and `CCCN1C(=O)[C@H](NC(=O)Nc2cccc(C)c2)N=C([C@@H]2CCCCN2)c2ccccc21` [1-((R)-2-Oxo-5-(S)-piperidin-2-yl-1-propyl-2,3-dihydro-1H-benzo[e][1,4]diazepin-3-yl)-3-m-tolyl-urea] are within 1.5-fold of each other in IC50: 36 nM for the first, 41 nM for the second.

First: CCCN1C(=O)[C@H](NC(=O)Nc2cccc(C)c2)N=C([C@H]2CCC(C)(C)CCN2C)c2ccccc21 [1-[(R)-2-Oxo-1-propyl-5-((R)-1,5,5-trimethyl-azepan-2-yl)-2,3-dihydro-1H-benzo[e][1,4]diazepin-3-yl]-3-m-tolyl-urea]
Second: CCCN1C(=O)[C@H](NC(=O)Nc2cccc(C)c2)N=C([C@H]2CCCCN2C)c2ccccc21 [1-[(R)-5-((R)-1-Methyl-piperidin-2-yl)-2-oxo-1-propyl-2,3-dihydro-1H-benzo[e][1,4]diazepin-3-yl]-3-m-tolyl-urea]
The IC50 of the first is 2.1-fold lower: 26 nM for the first, 54 nM for the second.

Compared with `CCCN1C(=O)[C@H](NC(=O)Nc2cccc(C)c2)N=C([C@H]2CC(C)(C)CCN2)c2ccccc21` [1-[(R)-5-((R)-4,4-Dimethyl-piperidin-2-yl)-2-oxo-1-propyl-2,3-dihydro-1H-benzo[e][1,4]diazepin-3-yl]-3-m-tolyl-urea], `Cc1cccc(NC(=O)N[C@@H]2N=C([C@H]3CCC(C)(C)CCN3)c3ccccc3N(C)C2=O)c1` [1-[(R)-5-((R)-5,5-Dimethyl-azepan-2-yl)-1-methyl-2-oxo-2,3-dihydro-1H-benzo[e][1,4]diazepin-3-yl]-3-m-tolyl-urea] is 8-fold higher in IC50: 1.5 nM for the first, 12 nM for the second. The first is the more potent here.

`CCN(CC)C(=O)CN1C(=O)[C@H](NC(=O)Nc2cccc(C)c2)N=C(c2cccc[n+]2C)c2ccccc21` [2-[(R)-1-Diethylcarbamoylmethyl-2-oxo-3-(3-m-tolyl-ureido)-2,3-dihydro-1H-benzo[e][1,4]diazepin-5-yl]-1-methyl-pyridinium; iodide] gave an IC50 of 18 nM.
